Where two headings read alike, the source gives them in different places.
Experiments:
Type in all cases: cell-based, Escherichia coli
[1] = system: EKO-35 araC::mexCD (MexCD from P. aeruginosa); assay: MIC susceptibility profiling, efflux platform; conditions: for Fold change of MICs: EKO-35 araC::mexCD compared to EKO-35; for MIC: Table 13B, non-porinated, technical duplicate, read-out: Minimum Inhibitory Concentration, EKO-35 araC::mexCD
How it was run: (§1)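 Steps: LB overnight culture at 37 °C; resuspension in PBS to OD600 ~1.0; 1/2000 dilution in MHB II; addition to 2-fold serial compound dilutions (duplicate); 18 h shaking incubation at 37 °C; OD600 read, with pre-read subtracted.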

EKO-35 araC::acrD = assay: MIC susceptibility profiling, efflux platform; conditions: for efflux pump-mediated resistance vs EKO-35: AcrD; for Fold change of MICs: EKO-35 araC::acrD compared to EKO-35; for MIC: Escherichia coli, Table 13A, non-porinated, technical duplicate, read-out: Minimum Inhibitory Concentration, EKO-35 araC::acrD
How it was run: as §1

EKO-35 araC::mdtEF = assay: MIC susceptibility profiling, efflux platform; conditions: for Fold change of MICs: EKO-35 araC::mdtEF compared to EKO-35; for MIC: Escherichia coli, Table 13A, non-porinated, technical duplicate, read-out: Minimum Inhibitory Concentration, EKO-35 araC::mdtEF
How it was run: as §1

EKO-35 araC::acrBD408A = assay: MIC susceptibility profiling, efflux platform; conditions: for Fold change of MICs: EKO-35 araC::acrBD408A compared to EKO-35; for MIC: Escherichia coli, Table 13B, non-porinated, technical duplicate, read-out: Minimum Inhibitory Concentration, EKO-35 araC::acrBD408A
How it was run: as §1

EKO-35 araC::acrB = assay: MIC susceptibility profiling, efflux platform; conditions: for Fold change of MICs: EKO-35 araC::acrB compared to EKO-35; for MIC: Escherichia coli, Table 13A, non-porinated, technical duplicate, read-out: Minimum Inhibitory Concentration, EKO-35 araC::acrB
How it was run: as §1

EKO-35 araC::emrAB = assay: MIC susceptibility profiling, efflux platform; conditions: for Fold change of MICs: EKO-35 araC::emrAB compared to EKO-35; for MIC: Escherichia coli, Table 13B, non-porinated, technical duplicate, read-out: Minimum Inhibitory Concentration, EKO-35 araC::emrAB
How it was run: as §1

EKO-35 araC::mdtBC = assay: MIC susceptibility profiling, efflux platform; conditions: for Fold change of MICs: EKO-35 araC::mdtBC compared to EKO-35; for MIC: Escherichia coli, Table 13B, non-porinated, technical duplicate, read-out: Minimum Inhibitory Concentration, EKO-35 araC::mdtBC
How it was run: as §1

EKO-35 araC::acrEF = assay: MIC susceptibility profiling, efflux platform; conditions: for Fold change of MICs: EKO-35 araC::acrEF compared to EKO-35; for MIC: Escherichia coli, Table 13A, non-porinated, technical duplicate, read-out: Minimum Inhibitory Concentration, EKO-35 araC::acrEF
How it was run: as §1

EKO-35 araC::emrKY = assay: MIC susceptibility profiling, efflux platform; conditions: for Fold change of MICs: EKO-35 araC::emrKY compared to EKO-35; for MIC: Escherichia coli, Table 13B, non-porinated, technical duplicate, read-out: Minimum Inhibitory Concentration, EKO-35 araC::emrKY
How it was run: as §1

EKO-35 araC::macAB = assay: MIC susceptibility profiling, efflux platform; conditions: for Fold change of MICs: EKO-35 araC::macAB compared to EKO-35; for MIC: Escherichia coli, Table 13B, non-porinated, technical duplicate, read-out: Minimum Inhibitory Concentration, EKO-35 araC::macAB
How it was run: as §1

EKO-35 araC::mdtBC Pore = assay: MIC susceptibility profiling, porinated efflux platform; conditions: for Fold changes of MICs: EKO-35 araC::mdtBC Pore compared to EKO-35-Pore; for MIC: Escherichia coli, EKO-35 araC::mdtBC Pore, technical duplicate, read-out: Minimum inhibitory concentration
How it was run: (§2)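 Strains carry the fhuA ΔC/Δ4L pore integrated between glmS and pstS under a constitutive promoter, with pore activity checked by vancomycin susceptibility. Overnight LB cultures were adjusted in PBS pH 7.4 to OD600 ~1.0 and diluted 1/2000 into MHB II. 2-fold compound titrations were read by OD600 after 18 h at 37 °C.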

EKO-35 araC::mdtEF Pore = assay: as above; conditions: for Fold changes of MICs: EKO-35 araC::mdtEF Pore compared to EKO-35-Pore; for MIC: Escherichia coli, Table 14A, porinated, technical duplicate, read-out: Minimum inhibitory concentration, EKO-35 araC::mdtEF Pore
How it was run: as §2

EKO-35 araC::acrB Pore = assay: as above; conditions: for Fold changes of MICs: EKO-35 araC::acr-B Pore compared to EKO-35-Pore
How it was run: as §2

E. coli ΔtolC = assay: microbe, parasite or virus in culture; conditions: for MIC: Escherichia coli, 18 h, read-out: Minimum Inhibitory Concentration, ΔtolC; for Minimum inhibitory concentration (MIC), ΔtolC: without pore, technical duplicate
How it was run: as §1

[2] = system: wild-type E. coli K-12 str. BW25113; assay: microbe, parasite or virus in culture; conditions: Escherichia coli, BW25113, technical duplicate
How it was run: as §1

E. coli EKO-35 = assay: microbe, parasite or virus in culture; conditions: for Fold change of MICs: EKO-35 compared to EKO-35 (reference); for MIC: Escherichia coli, EKO35, technical duplicate
How it was run: as §1

EKO-35-Pore = assay: MIC susceptibility profiling, porinated strain; conditions: for Fold changes of MICs: EKO-35-Pore compared to EKO-35-Pore (reference); for MIC: Escherichia coli, technical duplicate
How it was run: as §2

wild-type (WT) K-12-Pore = assay: microbe, parasite or virus in culture; conditions: Escherichia coli, technical duplicate
How it was run: as §2

ΔtolC-Pore = assay: microbe, parasite or virus in culture; conditions: for MIC: Escherichia coli, 18 h, read-out: Minimum inhibitory concentration, ΔtolC-Pore; for Minimum inhibitory concentration (MIC), Pore ΔtolC: Table 10, with pore, technical duplicate
How it was run: as §2

[3] = Table 10, without pore, read-out: Minimum inhibitory concentration (MIC), K-12
[4] = Table 13A, non-porinated, read-out: Minimum Inhibitory Concentration, K-12
[5] = Table 10, without pore, read-out: Minimum inhibitory concentration (MIC), EKO-35
[6] = Table 13A, non-porinated, read-out: Minimum Inhibitory Concentration, EKO-35
[7] = Table 10, with pore, read-out: Minimum inhibitory concentration (MIC), Pore EKO-35
[8] = Table 14A, porinated, read-out: Minimum inhibitory concentration, EKO-35-Pore
[9] = Table 10, with pore, read-out: Minimum inhibitory concentration (MIC), Pore K-12
[10] = Table 14A, porinated, read-out: Minimum inhibitory concentration, K-12 (WT)-Pore

| Structure (SMILES) | MIC [1] [µg/mL] | MIC (EKO-35 araC::acrD) [µg/mL] | MIC (EKO-35 araC::mdtEF) [µg/mL] | MIC (EKO-35 araC::acrBD408A) [µg/mL] | MIC (EKO-35 araC::emrAB) [µg/mL] | MIC (EKO-35 araC::emrKY) [µg/mL] | MIC (EKO-35 araC::macAB) [µg/mL] | MIC (EKO-35 araC::mdtBC Pore) [µg/mL] | MIC (E. coli ΔtolC) [µg/mL] | Minimum inhibitory concentration (MIC), ΔtolC (E. coli ΔtolC; Table 10) [µg/mL] | MIC [2, 3] [µg/mL] | MIC [2, 4] [µg/mL] | MIC (E. coli EKO-35; [5]) [µg/mL] | MIC (E. coli EKO-35; [6]) [µg/mL] | MIC (EKO-35-Pore; [7]) [µg/mL] | MIC (EKO-35-Pore; [8]) [µg/mL] | MIC (wild-type (WT) K-12-Pore; [9]) [µg/mL] | MIC (wild-type (WT) K-12-Pore; [10]) [µg/mL] | MIC (ΔtolC-Pore) [µg/mL] | Minimum inhibitory concentration (MIC), Pore ΔtolC (ΔtolC-Pore) [µg/mL] | also measured |
| --- | --- | --- | --- | --- | --- | --- | --- | --- | --- | --- | --- | --- | --- | --- | --- | --- | --- | --- | --- | --- | --- |
| CO[C@@H]1[C@@H](OC(N)=O)[C@@H](O)[C@H](Oc2ccc3c(O)c(NC(=O)c4ccc(O)c(CC=C(C)C)c4)c(=O)oc3c2C)OC1(C)C [novobiocin] | 25 | 200 | 50 | 3.12 | 25 | 3.12 | 1.56 | 3.12 | 0.781 | 0.781 | 200 | 200 | 3.12 | 3.12 | 0.781 | 0.781 | 12.5 | 12.5 | 0.391 | 0.391 | Fold change of MICs [1]: 8 fold; efflux pump-mediated resistance vs EKO-35 (EKO-35 araC::acrD): confirmed; Fold change of MICs (EKO-35 araC::acrD): 64 fold; Fold change of MICs (EKO-35 araC::mdtEF): 16 fold; Fold change of MICs (EKO-35 araC::acrBD408A): 1 fold; Fold change of MICs (EKO-35 araC::acrB): 128 fold; Fold change of MICs (EKO-35 araC::emrAB): 8 fold; Fold change of MICs (EKO-35 araC::mdtBC): 4 fold; efflux pump-mediated resistance vs EKO-35 (EKO-35 araC::mdtBC; MdtBC): conferred resistance; Fold change of MICs (EKO-35 araC::acrEF): 128 fold; Fold change of MICs (EKO-35 araC::emrKY): 1 fold; Fold change of MICs (EKO-35 araC::macAB): 1 fold; Fold changes of MICs (EKO-35 araC::mdtBC Pore): 4 fold; Fold changes of MICs (EKO-35 araC::mdtEF Pore): 16 fold; Fold changes of MICs (EKO-35 araC::acrB Pore): 512 fold; fold difference in MIC between EKO-35 and ΔtolC (E. coli ΔtolC; ΔtolC mutant more susceptible than EKO-35, Table 10): 4 fold; Fold change of MICs (E. coli EKO-35): 1 fold; Fold changes of MICs (EKO-35-Pore): 1 fold |
| Cc1onc(-c2ccccc2)c1C(=O)N[C@@H]1C(=O)N2[C@@H]1SC(C)(C)[C@@H]2C(=O)O [oxacillin] | 20 | 160 | 20 | 1.25 | 1.25 | 0.625 | 0.625 | 0.313 | 0.625 | 0.625 | 160 | 160 | 0.625 | 0.625 | 0.313 | 0.313 | 40 | 40 | 0.313 | 0.313 | efflux pump-mediated resistance vs EKO-35 (EKO-35 araC::acrD): confirmed; MIC (EKO-35 araC::acrB): 160 µg/mL; MIC (EKO-35 araC::mdtBC): 0.625 µg/mL; MIC (EKO-35 araC::acrEF): 160 µg/mL; MIC (EKO-35 araC::mdtEF Pore): 1.25 µg/mL; MIC (EKO-35 araC::acrB Pore; Escherichia coli, Table 14A, porinated, technical duplicate, read-out: Minimum inhibitory concentration, EKO-35 araC::acrB Pore): 20 µg/mL |
| COc1ccc(C[C@H](N)C(=O)N[C@H]2[C@@H](O)[C@H](n3cnc4c(N(C)C)ncnc43)O[C@@H]2CO)cc1 [puromycin] | 6.25 | 1.56 | 1.56 | 1.56 | 1.56 | 1.56 | 1.56 | 0.781 | 3.12 | 3.125 | 50 | 50 | 1.56 | 1.56 | 0.781 | 0.781 | 50 | 50 | 1.56 | 1.563 | Fold change of MICs [1]: 4 fold; Fold change of MICs (EKO-35 araC::acrD): 1 fold; Fold change of MICs (EKO-35 araC::mdtEF): 1 fold; Fold change of MICs (EKO-35 araC::acrBD408A): 1 fold; Fold change of MICs (EKO-35 araC::acrB): 64 fold; MIC (EKO-35 araC::acrB): 100 µg/mL; Fold change of MICs (EKO-35 araC::emrAB): 1 fold; Fold change of MICs (EKO-35 araC::mdtBC): 1 fold; MIC (EKO-35 araC::mdtBC): 1.56 µg/mL; Fold change of MICs (EKO-35 araC::acrEF): 4 fold; MIC (EKO-35 araC::acrEF): 6.25 µg/mL; Fold change of MICs (EKO-35 araC::emrKY): 1 fold; Fold change of MICs (EKO-35 araC::macAB): 1 fold; Fold changes of MICs (EKO-35 araC::mdtBC Pore): 1 fold; Fold changes of MICs (EKO-35 araC::mdtEF Pore): 2 fold; MIC (EKO-35 araC::mdtEF Pore): 1.56 µg/mL; Fold changes of MICs (EKO-35 araC::acrB Pore): 64 fold; Fold change of MICs (E. coli EKO-35): 1 fold; Fold changes of MICs (EKO-35-Pore): 1 fold |
